Reference: PubChem BioAssay (NCI)
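Cultured in 96-well plates, cells were exposed to test compound for 48 hours across five concentrations. At the GI50, growth is halved. TGI is the concentration that stops growth completely.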

Key:
Test in all cases: inhibition of tumour cell growth, NCI panel, 48 h
SF-268 CNS = system: SF-268 CNS
SN12C renal = system: SN12C renal
U251 CNS = system: U251 CNS
NCI-H460 lung = system: NCI-H460 lung
MDA-MB-231 breast = system: MDA-MB-231 breast
KM12 colon = system: KM12 colon
BT-549 breast = system: BT-549 breast
NCI-H226 lung = system: NCI-H226 lung
786-0 renal = system: 786-0 renal
SR leukemia = system: SR leukemia
IGROV1 ovarian = system: IGROV1 ovarian
SK-MEL-28 melanoma = system: SK-MEL-28 melanoma
A498 renal = system: A498 renal
MDA-N = system: MDA-N
HCT-15 colon = system: HCT-15 colon
HL-60(TB) leukemia = system: HL-60(TB) leukemia
HCC-2998 colon = system: HCC-2998 colon
SF-295 CNS = system: SF-295 CNS
SNB-75 CNS = system: SNB-75 CNS
RXF 393 renal = system: RXF 393 renal
DU-145 prostate = system: DU-145 prostate
SNB-19 CNS = system: SNB-19 CNS
CAKI-1 renal = system: CAKI-1 renal
T-47D breast = system: T-47D breast
HT29 colon = system: HT29 colon
ACHN renal = system: ACHN renal
COLO 205 colon = system: COLO 205 colon
LOX IMVI melanoma = system: LOX IMVI melanoma
SK-MEL-5 melanoma = system: SK-MEL-5 melanoma
HOP-92 NSCLC = system: HOP-92 NSCLC
UACC-62 melanoma = system: UACC-62 melanoma
HOP-62 NSCLC = system: HOP-62 NSCLC
HCT-116 colon = system: HCT-116 colon
OVCAR-4 ovarian = system: OVCAR-4 ovarian
HS 578T breast = system: HS 578T breast
MALME-3M melanoma = system: MALME-3M melanoma
SF-539 CNS = system: SF-539 CNS
OVCAR-8 ovarian = system: OVCAR-8 ovarian
NCI/ADR-RES ovarian = system: NCI/ADR-RES ovarian
PC-3 prostate = system: PC-3 prostate
OVCAR-5 ovarian = system: OVCAR-5 ovarian
SW-620 colon = system: SW-620 colon
MCF7 breast = system: MCF7 breast
CCRF-CEM leukemia = system: CCRF-CEM leukemia
A549 NSCLC = system: A549 NSCLC
EKVX NSCLC = system: EKVX NSCLC
NCI-H522 lung = system: NCI-H522 lung
K-562 leukemia = system: K-562 leukemia
RPMI-8226 leukemia = system: RPMI-8226 leukemia
NCI-H23 lung = system: NCI-H23 lung
SK-OV-3 ovarian = system: SK-OV-3 ovarian
M14 melanoma = system: M14 melanoma
UACC-257 melanoma = system: UACC-257 melanoma
OVCAR-3 ovarian = system: OVCAR-3 ovarian
UO-31 renal = system: UO-31 renal
MOLT-4 leukemia = system: MOLT-4 leukemia
TK-10 renal = system: TK-10 renal
MDA-MB-435 = system: MDA-MB-435

## CCOC(=O)c1c(Br)c(-c2ccc(Br)cc2)c(Br)n1C
SF-268 CNS
  TGI: 75.9 µM
SN12C renal
  TGI: 84 µM
U251 CNS
  TGI: 55 µM
NCI-H460 lung
  TGI: > 100 µM
MDA-MB-231 breast
  TGI: 50.1 µM
KM12 colon
  TGI: 26.4 µM
BT-549 breast
  TGI: 79.4 µM
NCI-H226 lung
  TGI: 49.4 µM
786-0 renal
  TGI: 89.7 µM
SR leukemia
  GI50: 10 µM
  TGI: 26.1 µM
IGROV1 ovarian
  TGI: > 100 µM
SK-MEL-28 melanoma
  TGI: 51.8 µM
A498 renal
  TGI: 44.2 µM
MDA-N
  GI50: 5.64 µM
  TGI: 32.5 µM
HCT-15 colon
  TGI: 73 µM
HL-60(TB) leukemia
  GI50: 5.24 µM
  TGI: 16.6 µM
HCC-2998 colon
  TGI: 42.1 µM
SF-295 CNS
  TGI: 45.6 µM
SNB-75 CNS
  GI50: 5.3 µM
  TGI: 49.7 µM
RXF 393 renal
  TGI: 34.2 µM
DU-145 prostate
  TGI: > 100 µM
SNB-19 CNS
  TGI: > 100 µM
CAKI-1 renal
  TGI: 75.2 µM
T-47D breast
  TGI: > 100 µM
HT29 colon
  TGI: 42.5 µM
ACHN renal
  TGI: 84.7 µM
COLO 205 colon
  TGI: 34.3 µM
LOX IMVI melanoma
  GI50: 14.3 µM
  TGI: 30.4 µM
SK-MEL-5 melanoma
  TGI: 35.2 µM
HOP-92 NSCLC
  GI50: 14.3 µM
  TGI: 55.7 µM
UACC-62 melanoma
  GI50: 23.6 µM
  TGI: > 100 µM
HOP-62 NSCLC
  TGI: 53.1 µM
HCT-116 colon
  GI50: 14.8 µM
  TGI: 34.4 µM
OVCAR-4 ovarian
  TGI: > 100 µM
HS 578T breast
  TGI: > 100 µM
MALME-3M melanoma
  TGI: 62.7 µM
SF-539 CNS
  TGI: 73.2 µM
OVCAR-8 ovarian
  TGI: 87.1 µM
NCI/ADR-RES ovarian
  GI50: 21.2 µM
  TGI: 87.5 µM
PC-3 prostate
  TGI: 71.1 µM
OVCAR-5 ovarian
  TGI: 59.7 µM
SW-620 colon
  TGI: > 100 µM
MCF7 breast
  TGI: 80.7 µM
CCRF-CEM leukemia
  TGI: 31.5 µM
A549 NSCLC
  TGI: > 100 µM
EKVX NSCLC
  GI50: 20.3 µM
  TGI: 74.2 µM
NCI-H522 lung
  GI50: 11.2 µM
  TGI: 44.5 µM
K-562 leukemia
  GI50: 11.3 µM
  TGI: 35.1 µM
RPMI-8226 leukemia
  TGI: 42.3 µM
NCI-H23 lung
  TGI: > 100 µM
SK-OV-3 ovarian
  TGI: > 100 µM
M14 melanoma
  TGI: 63.3 µM
UACC-257 melanoma
  TGI: 78 µM
OVCAR-3 ovarian
  TGI: 38.7 µM
UO-31 renal
  TGI: > 100 µM
MOLT-4 leukemia
  TGI: 37.6 µM
TK-10 renal
  TGI: > 100 µM
MDA-MB-435
  GI50: 4.26 µM
  TGI: 22.6 µM

## c1ccc(-c2sc(-c3cccs3)cc2Cc2cccs2)cc1
SF-268 CNS
  TGI: > 10 µM
SN12C renal
  TGI: > 10 µM
NCI-H460 lung
  TGI: > 10 µM
MDA-MB-231 breast
  TGI: > 10 µM
KM12 colon
  TGI: > 10 µM
BT-549 breast
  TGI: > 10 µM
NCI-H226 lung
  TGI: > 10 µM
786-0 renal
  TGI: > 10 µM
SR leukemia
  TGI: > 10 µM
IGROV1 ovarian
  TGI: > 10 µM
SK-MEL-28 melanoma
  TGI: > 10 µM
MDA-N
  TGI: > 10 µM
HCT-15 colon
  TGI: > 10 µM
HL-60(TB) leukemia
  TGI: > 10 µM
HCC-2998 colon
  TGI: > 10 µM
SF-295 CNS
  TGI: > 10 µM
SNB-75 CNS
  TGI: > 10 µM
RXF 393 renal
  TGI: > 10 µM
DU-145 prostate
  TGI: > 10 µM
SNB-19 CNS
  TGI: > 10 µM
CAKI-1 renal
  TGI: > 10 µM
T-47D breast
  TGI: > 10 µM
HT29 colon
  TGI: > 10 µM
ACHN renal
  TGI: > 10 µM
COLO 205 colon
  TGI: > 10 µM
LOX IMVI melanoma
  TGI: > 10 µM
SK-MEL-5 melanoma
  TGI: > 10 µM
HOP-92 NSCLC
  TGI: > 10 µM
UACC-62 melanoma
  TGI: > 10 µM
HOP-62 NSCLC
  TGI: > 10 µM
HCT-116 colon
  TGI: > 10 µM
OVCAR-4 ovarian
  TGI: > 10 µM
HS 578T breast
  TGI: > 10 µM
MALME-3M melanoma
  TGI: > 10 µM
SF-539 CNS
  TGI: > 10 µM
OVCAR-8 ovarian
  TGI: > 10 µM
NCI/ADR-RES ovarian
  TGI: > 10 µM
PC-3 prostate
  TGI: > 10 µM
SW-620 colon
  TGI: > 10 µM
MCF7 breast
  TGI: > 10 µM
CCRF-CEM leukemia
  TGI: > 10 µM
A549 NSCLC
  TGI: > 10 µM
EKVX NSCLC
  TGI: > 10 µM
NCI-H522 lung
  TGI: > 10 µM
K-562 leukemia
  TGI: > 10 µM
RPMI-8226 leukemia
  TGI: > 10 µM
NCI-H23 lung
  TGI: > 10 µM
SK-OV-3 ovarian
  TGI: > 10 µM
M14 melanoma
  TGI: > 10 µM
UACC-257 melanoma
  TGI: > 10 µM
UO-31 renal
  TGI: > 10 µM
MOLT-4 leukemia
  TGI: > 10 µM
TK-10 renal
  TGI: > 10 µM
MDA-MB-435
  TGI: > 10 µM
